Data on 3 compounds can be found in patent US20220251143A1, “NON-HYDROLYZABLE NON-CLEAVABLE, STABLE LINKERS FOR PRECISION THERAPEUTICS AND USES THEREOF” (THE TRUSTEES OF COLUMBIA UNIVERSITY IN THE CITY OF NEW YORK, priority 2019, published 2022).

The nature of data set [1]: Stability of aqueous solutions at 4° C. Type of data set: physicochemical. The following applies: preliminary studies.
Excerpt: (§1) Conjugate composition comprising DM1 and lanreotide and the non-hydrolyzable, non-cleavable, stable linker GMBS was synthesized as shown in Scheme 1. Briefly, the primary amine of lanreotide was protected with Boc20. The reaction of the second amine group of the protected lanreotide with the NHS ester of GMBS gave the intermediate GMBS-lanreotide. The reaction of the maleimide of GMBS-lanreotide with the sulfhydryl group (—SH) of DM1 gave a protected conjugate. De-protection of the Boc with TFA provided the final product. All compounds were fully characterized and purified to >95% as determined by NMR and LC-MS analyses. The purity of the compound for animal studies is >98%.
as §1, with “PEG” for “GMBS”, “2.” for “1.”, “PEG-lanreotide.” for “GMBS-lanreotide.”, “PEG-lanreotide” for “GMBS-lanreotide”

Data set [2] deals with neuroendocrine prostate cancer (NEPC) organoids. The following applies: three days. The text has this:
A neuroendocrine prostate cancer (NEPC) cell line was used and NEPC organoids were generated.
CellTiter-Glo Luminescent Cell Viability assay measured viable cells. The percentage of viable cells after drug treatment compared to vehicle control (DMSO) was used to generate a dose—response curve.

In data set [3] the test system is SSTR2 expression in NEC1 (NCI-H82) cells. Put plainly: SSTR2 expression by quantitative PCR, NEC1. The following applies: within 72 hours, 1 or 3 nanomolar romidepsin or 1 micromolar entinostat. Type of data set: cell-based. The procedure:
(§2) Three neuroendocrine cell lines, NEC1 (NCI—H82), NEC2 (Kelly), and NEC3 (H727), were incubated in media containing 1 or 3 nanomolar romidepsin (EA1) or 1 micromolar entinostat (EA2) or without drug at 37° C. under 5% CO2 for 72-96 hours after which time cellular RNA was harvested and expression of the SSTR determined.
(§3) Somatostatin receptor expression was measured by quantitative PCR using primers for SSTR2.

The subject of data set [4] is SSTR2 expression in NEC2 (Kelly) cells. In words: SSTR2 expression by quantitative PCR, NEC2. It counts as cell-based. The note with it: within 72 hours, 1 or 3 nanomolar romidepsin or 1 micromolar entinostat. The procedure: as §2, §3
Data set [5] has as its system SSTR2 expression in NEC3 (H727) cells. In words: SSTR2 expression by quantitative PCR, NEC3. It counts as cell-based. The note with it: within 72 hours, 1 or 3 nanomolar romidepsin or 1 micromolar entinostat. On the procedure:
as §2, §3

Bridge positions count the residues as written; N and C are the ends. Square brackets hold non-standard residues; d marks the D form. Peptide text beside a SMILES is read from it. * marks the point of attachment. DM1Mal(CH2)2CO = COc1cc2cc(c1Cl)N(C)C(=O)C[C@H](OC(=O)[C@H](C)N(C)C(=O)CCSC1CC(=O)N(CCC(=O)*)C1=O)[C@]1(C)O[C@H]1[C@H](C)[C@@H]1C[C@@](O)(NC(=O)O1)[C@H](OC)/C=C/C=C(\C)C2; X1 = COc1cc2cc(c1Cl)N(C)C(=O)C[C@H](OC(=O)[C@H](C)N(C)C(=O)CCSC1CC(=O)N(CCCC(=O)*)C1=O)[C@]1(C)O[C@H]1[C@H](C)[C@@H]1C[C@@](O)(NC(=O)O1)[C@H](OC)/C=C/C=C(\C)C2; d2Nal = N[C@H](Cc1ccc2ccccc2c1)C(=O)O; PEG2 = NCCOCCOCCC(=O)O

For `COc1cc2cc(c1Cl)N(C)C(=O)C[C@H](OC(=O)[C@H](C)N(C)C(=O)CCSC1CC(=O)N(CCCC(=O)N[C@H](Cc3ccc4ccccc4c3)C(=O)N[C@H]3CSSC[C@H](C(=O)N[C@H](C(N)=O)[C@@H](C)O)NC(=O)[C@H](C(C)C)NC(=O)[C@H](CCCCN)NC(=O)[C@@H](Cc4c[nH]c5ccccc45)NC(=O)[C@H](Cc4ccc(O)cc4)NC3=O)C1=O)[C@]1(C)O[C@H]1[C@H](C)[C@@H]1C[C@@](O)(NC(=O)O1)[C@H](OC)/C=C/C=C(\C)C2` (stereo partly shown) [DM1-GMBS-Lanreotide] (X1-[d2Nal]CY[dW]KV[dC]T-NH2; disulfide 2-7), in data set [1], the “stability of aqueous solutions” value was “stable at 4 °C for months”.
In the case of `COc1cc2cc(c1Cl)N(C)C(=O)C[C@H](OC(=O)[C@H](C)N(C)C(=O)CCSC1CC(=O)N(CCC(=O)NCCOCCOCCC(=O)N[C@H](Cc3ccc4ccccc4c3)C(=O)N[C@H]3CSSC[C@H](C(=O)N[C@H](C(N)=O)[C@@H](C)O)NC(=O)[C@H](C(C)C)NC(=O)[C@H](CCCCN)NC(=O)[C@@H](Cc4c[nH]c5ccccc45)NC(=O)[C@H](Cc4ccc(O)cc4)NC3=O)C1=O)[C@]1(C)O[C@H]1[C@H](C)[C@@H]1C[C@@](O)(NC(=O)O1)[C@H](OC)/C=C/C=C(\C)C2` (stereo partly shown) [DM1-PEG-Lanreotide] ({DM1Mal(CH2)2CO-PEG2}-[d2Nal]CY[dW]KV[dC]T-NH2; disulfide 2-7), the “stability of aqueous solutions” value in data set [1] is “stable at 4 °C for months”. Besides, the “effectiveness compared with conjugate with cleavable, hydrolysable linker (MCC)” value in data set [2] (NEPC organoids) is “more effective”. The “activity in NEPC organoids (viable cells)” value in data set [2] (1 uM to 0.00046 uM) is “effective and active”.
With `Nc1ccccc1NC(=O)c1ccc(CNC(=O)OCc2cccnc2)cc1` [entinostat], the “induction of the somatostatin receptor (SSTR2 expression)” value in data set [3], in data set [4] and in data set [5] was “Induction of the somatostatin receptor” in each case.
